Measurements as given in US20090143426A1, “Synthesis of 1,3,6-trisubstituted-2-carboxyquinol-4-ones as selective ET A antagonists and their use as medicaments” (priority 2007, published 2009).
“Also recorded” adds a separate entry of the source.

Experiments:
[1] = tested on: BALF neutrophils in female Syrian hamsters; test: Animal model of smoking related acute lung injury (ET-1 plus cigarette smoke, BALF neutrophils); assay type: in vivo, hamster; conditions: 500 μg IP 60 minutes before 5 μg ET-1, then cigarette smoke two hours, three days
Procedure: Animal models of smoking related acute lung injury. The Animal Care and Utilization Committee of the College of Pharmacy and Allied Health Professions, St. John's University approved all experimental protocols, and the research was conducted according to the requirements of NIH Guide for the Care and Use of Laboratory Animals (revised 1996).
Female Syrian hamsters, weighing approximately 100 g each, were divided into two groups as follows: Group 1 was treated IP with: 1) 500 μg of HJP272 in 0.5 mL Na2CO3 and 2) 5 μg ET-1 in 0.25 mL PBS 60 minutes later, followed immediately by exposure to cigarette smoke for two hours. This regimen was continued for three days.
Group 2 was treated IP with: 1) 0.5 mL Na2CO3 and 2) […] ET-1 in 0.25 mL PBS 60 minutes later, followed immediately by exposure to cigarette smoke for three consecutive days as per Group 1. The animals were placed in a 70×48×38 cm chamber and passively exposed to cigarette smoke produced by a TE-10 smoking machine (Teague Enterprises, Davis, Calif.) that simultaneously burned two filtered research-grade cigarettes (type 2R4F, University of Kentucky). Smoke from both the filtered and burning ends of the cigarette was collected, and then mixed together with air in a separate chamber, thus simulating second-hand smoke exposure. Each cigarette was puffed once per minute for two seconds at a flow rate of 1.05 LPM, yielding 35 mL of smoke. This cycle was repeated nine times before ejecting the cigarette and loading a new one. Proper flow rate was maintained by a vacuum pump that established negative pressure at the exhaust port. Total smoke particulates averaged 87 mg per cubic meter.
All animals were sacrificed 24 hours after completing the smoke exposure regimen to maximize the neutrophil population in the lung, and the percentage of BALF neutrophils was measured (van der Vaart et al. 2004)

BioXTal ET-B receptor = target: T1, BioXTal ET-B receptor (Homo sapiens, UniProt P24530); test: In vitro competitive binding assay with [125I]Tyr13-ET-1, ET-B receptor; conditions: selectivity ETA versus ETB; ET-B assays in duplicate
T1 construct: purchased BioXTal
T1 sequence (P24530 27-442): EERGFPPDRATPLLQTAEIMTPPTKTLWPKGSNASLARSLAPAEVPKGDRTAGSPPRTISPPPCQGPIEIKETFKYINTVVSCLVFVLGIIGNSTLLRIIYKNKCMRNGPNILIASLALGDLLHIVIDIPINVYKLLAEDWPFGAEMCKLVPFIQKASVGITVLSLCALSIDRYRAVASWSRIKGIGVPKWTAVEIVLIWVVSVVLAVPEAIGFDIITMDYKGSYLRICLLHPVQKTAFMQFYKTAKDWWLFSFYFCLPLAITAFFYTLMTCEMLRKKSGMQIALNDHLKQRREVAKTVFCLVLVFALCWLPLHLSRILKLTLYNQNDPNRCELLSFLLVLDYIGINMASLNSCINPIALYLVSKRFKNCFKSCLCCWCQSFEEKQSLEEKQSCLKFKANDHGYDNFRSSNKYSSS
Procedure: (§1) In vitro binding assay. Varying concentrations of HJP272, ranging from 10^3 to 10^8 pM, were incubated with 10 ug of BioXTal ET-A or ET-B receptor and 224 pM [^125I]Tyr13-ET-1 in 50 mM NaH2PO4, 150 mM NaCl, 5 mM EDTA, and 0.1% bovine serum albumin.
(§2) For total binding, radio labeled ET-1 and receptor were incubated without the receptor antagonist. For non-specific binding, 300 nM cold ET-1 was substituted for the antagonist. Assay mixtures were incubated at 30 to 32° C. for two hours and the assays were stopped by the addition of cold buffer. Assay mixtures were then quickly filtered through GF/C Whatman filters and washed with cold assay buffer in a Millipore sampling manifold. Filters were collected and counts per minute of the bound radio labeled ET-1 were read by a Packard Cobra Gamma Counter (Perkin Elmer).
(§3) Percent specific binding was calculated for all data points. Assays containing ET-A receptor were run in triplicate and assays containing the ET-B receptor were run in duplicate.

BioXTal ET-A receptor = target: T2, BioXTal ET-A receptor (Homo sapiens, UniProt P25101); test: In vitro competitive binding assay with [125I]Tyr13-ET-1, ET-A receptor; conditions: [125I]ET-1 224 pM; 10 ug receptor; 30 to 32° C., two hours; triplicate; read-out: IC50, inhibition of specific [125I] ET-1 binding to ETA receptor
T2 construct: purchased BioXTal
T2 sequence (P25101 21-427): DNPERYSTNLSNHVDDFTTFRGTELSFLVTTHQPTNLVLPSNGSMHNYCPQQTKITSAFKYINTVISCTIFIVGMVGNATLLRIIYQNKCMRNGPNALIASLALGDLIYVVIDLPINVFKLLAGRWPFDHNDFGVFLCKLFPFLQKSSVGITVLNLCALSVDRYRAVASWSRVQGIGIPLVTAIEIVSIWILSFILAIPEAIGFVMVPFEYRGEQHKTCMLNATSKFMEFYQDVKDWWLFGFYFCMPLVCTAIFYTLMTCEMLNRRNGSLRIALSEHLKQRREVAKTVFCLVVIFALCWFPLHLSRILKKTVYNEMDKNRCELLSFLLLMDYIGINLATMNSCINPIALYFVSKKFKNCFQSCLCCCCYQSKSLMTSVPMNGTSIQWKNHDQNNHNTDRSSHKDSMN
Procedure: as §1, §2, §3

[2] = tested on: LPS-induced (infection-associated) preterm labor and delivery in pregnant C57B1/6 mice; test: Animal model of preterm birth (LPS-injected timed pregnant mice); assay type: in vivo, mouse
Procedure: Animal models of preterm birth. The Animal Care and Utilization Committee of the College of Pharmacy and Allied Health Professions, St. John's University approved all experimental protocols, and the research was conducted according to the requirements of NIH Guide for the Care and Use of Laboratory Animals (revised 1996). C57B1/6 mice from Taconic Laboratory were used for all experiments. Animals were housed in plastic cages in a temperature-controlled animal facility with alternating 12:12 hour light-dark cycles, with ad libitum access to food and water.
Nineteen timed pregnant C57B1/6 E15.5 mice were injected with LPS in 0.5 ml PBS at a concentration of 50 mg/kg. These mice were randomly assigned to two groups. Group A mice (n=8) received 50 mg/kg HJP272 dissolved in PBS and Group B mice (n=11) received PBS only.
All treatments were administered by ip injection 10 hours after LPS injection. Mice were continually monitored and the time of delivery of all pups, as well as the number of pups delivered, was recorded. All mice were autopsied at the end of the experiment to confirm pregnancy and to determine the number of pups retained in utero.

[3] = tested on: attachment of neutrophils to colonic submucosal venules; conditions: inflammatory bowel disease; Anthoni et al. 2006; cited from earlier work

| Structure (SMILES) | effect on the ET-1-induced rise of BALF neutrophils (words) [1] | effect on the ET-1-induced rise of BALF neutrophils (words) ([1]; listed as ETA-RA) | effect on the ET-1-induced rise of BALF neutrophils (words) ([1]; listed as HJP-272) | ratio of IC50 for the endothelin B receptor to IC50 for the endothelin A receptor (BioXTal ET-B receptor) | IC50 (BioXTal ET-A receptor) | melting point | percent of prematurely delivered pups ([2]; E15.5 mice, LPS 50 mg/kg, 50 mg/kg ip 10 hours after LPS, PBS control 39.7) | mice that delivered prematurely ([2]; E15.5 mice, LPS 50 mg/kg, 50 mg/kg ip 10 hours after LPS, control 11 out of 11) | control of premature labor and delivery ([2]; LPS followed by compound versus LPS followed by vehicle) | prevention of premature expulsion of pups ([2]; LPS followed by compound versus LPS followed by vehicle, P<0.0001) | average delivery time (T) ([2]; the six treated mice that delivered, LPS 50 mg/kg, PBS control T10.9+/−0.61, p<0.0001) | craniofacial anomalies in pups ([2]; transient exposure, late in gestation) | attachment of neutrophils to colonic submucosal venules [3] |
| --- | --- | --- | --- | --- | --- | --- | --- | --- | --- | --- | --- | --- | --- |
| CCc1cc2c(cc1Cn1c(C(=O)O)c(Cc3cccc(C(=O)O)c3)c(=O)c3cc(O)ccc31)OCO2 [HJP272, 3-(3-carboxybenzyl)-1-((6-ethylbenzo[d][1,3]dioxol-5-yl)methyl)-6-hydroxy-4-oxo-1,4-dihydroquinoline-2-carboxylic acid] | reversed | reversed this effect | reversed | 219.2 | 70.1 nM | 206 to 208 °C | 30.0% | six out of eight | controlled preterm labor and delivery in our mouse model of infection-associated preterm labor very effectively; also recorded: significantly better control of premature delivery | significantly greater prevention of premature expulsion of pups | 15.0 ± 1.8 h | None of the pups in the work presented here demonstrated such abnormalities | – |
| COc1ccccc1Oc1c(NS(=O)(=O)c2ccc(C(C)(C)C)cc2)nc(-c2ncccn2)nc1OCCO [bosentan] | – | – | – | – | – | – | – | – | – | – | – | – | markedly reduced attachment |
